Several values for one entry are separate records, joined by “and”; a condition that tells them apart may be missing. Identical values can stand only once.
Columns and labels:
Assay type in all cases: in vivo, rat
male Sprague-Dawley rats [1] = assay: Paw pressure assay, mechanical hyperalgesia (PWT) in thermal burn pain model; settings: rat burn injury 55° C. 24 s
Method: (§1) Test Animals: Each experiment used male Sprague-Dawley rats weighing between 190-260 g at the time of thermal burn injury. The rats were housed two per cage, and were allowed to acclimate to their environment for at least six days before testing began. The rats had free access to food and water at all times, except during testing and prior to oral (PO) administration of a test compound, when food was removed about 16 hours before dosing. The rats were divided into treatment groups, and one of the following compounds was administered to each group at the dose and by the route of administration indicated in Tables 5.2A to 5.2C, 5.3A and 5.3B, and 5.4A and 5.4B: ketorolac (Sigma-Aldrich, St. Louis, Mo.), AMG 517 (selective TRPV1 antagonist described in Em. Doherty et al., “Novel vanilloid receptor-1 antagonists:2. Structure-activity relationships of 4-oxopyrimidines leading to the selection of a clinical candidate,” J Med Chem 50:3515-3527 (2007).) (Purdue Pharma L. P., Cranbury, N.J.), indomethacin (Alexis Biochemicals, Farmingdale, N.Y.), gabapentin (Bosche Scientific, New Brunswick, N.J.), or (S)-3-chloro-5-(1,2-dihydroxyethyl)-N-(5-(trifluoromethyl)pyridin-2-yl)-5′,6′-dihydro-[2,4′-bipyridine]-1′(2′H)-carboxamide (Compound 1). The control groups were administered the vehicle for the compound of formula (I). The volume of administration for PO treatment was 5 ml/kg, and was the same for all treatment groups. Volume of administration for intraperitoneal (i.p.) drug administration was 2 ml/kg.
(§2) To assess the actions of a compound of formula (I) for the treatment or prevention of burn pain, a model of thermal burn pain was used. A thermal burn injury was induced under isofluorane/O2 inhalation anesthesia. To assess mechanical hyperalgesia and weight bearing, a thermal injury was produced by immersing the left hind paw into water maintained at 55° C. for 24 seconds. The left hind paw of non-injured control animals was immersed in 22° C. water for 24 seconds. To assess thermal hyperalgesia, a thermal injury was produced by immersing the left hindpaw into water maintained at 50° C. for 48 seconds; the left hind-paw of non-injured control animals was immersed in 22° C. water for 48 seconds. The animals were assessed for response to noxious mechanical stimuli by determining PWT for mechanical hyperalgesia, weight bearing difference between the injured or non-injured side, or response to noxious thermal stimuli by determining PWL for thermal hyperalgesia, all as described below, prior to drug administration (baseline), then again at 1, 3 and 5 hours after induction of burn injury.
The paw pressure assay was used to assess mechanical hyperalgesia. For this assay, hind paw withdrawal thresholds (PWT) to a noxious mechanical stimulus were determined using an analgesimeter (Model 7200, commercially available from Ugo Basile of Italy) as described in C. Stein, “Unilateral Inflammation of the Hindpaw in Rats as a Model of Prolonged Noxious Stimulation: Alterations in Behavior and Nociceptive Thresholds,” Pharmacol. Biochem. and Behavior 31:451-455 (1988). The rat's paw was placed on a small platform, and weight was applied in a graded manner up to a maximum of 250 grams. The endpoint was taken as the weight at which the paw was completely withdrawn. PWT was determined once for each rat at each time point, wherein the affected (ipsilateral; same side as the injury) rear paw was tested. […] All drug treatment groups were compared to the vehicle control group (i.e. injured, administered only the vehicle).

male Sprague-Dawley rats [2] = assay: Plantar test, thermal hyperalgesia (PWL) in thermal burn pain model; settings: rat burn injury 50° C. 48 s, 30 mg/kg PO
Method: as §1, §2
The plantar test was used to assess thermal hyperalgesia. For this test, hind paw withdrawal latencies (PWL) to a noxious thermal stimulus were determined using a plantar test apparatus (commercially available from Ugo Basile of Italy) following the technique described by K. Hargreaves et al., “A New and Sensitive Method for Measuring Thermal Nociception in Cutaneous Hyperalgesia,” Pain 32(1):77-88 (1988). The maximum exposure time was set at 32 seconds to avoid tissue damage and any directed paw withdrawal from the heat source is taken as the end point. Three latencies were determined at each time point and averaged.

male Sprague-Dawley rats [3] = assay: Hind limb weight bearing (incapacitance meter, % WL) in thermal burn pain model; settings: rat burn injury 55° C. 24 s
Method: as §1, §2
A commercially available incapacitance meter was used to determine the weight distribution on the two hind paws of the animal (Linton Incapacitance Tester (Linton Instrumentation, Norfolk, UK)). The weight bearing difference (WBD) between the injured and non-injured hindpaw was measured. The animal was placed in the testing chamber that allows the animal to stand normally, distributing its body weight on the hind limbs for the test. Each hind paw was positioned on a separate pressure sensitive pad, which independently measures the pressure applied by each limb. The device continuously collects data after either a force threshold has been exceeded, or the investigator depresses the start pad. Rats were allowed to acclimate when placed on the apparatus, and when they were stationary, the force exerted was then continuously monitored for 3 s. The endpoint was the amount of pressure applied to each limb over time. Three readings were taken for each rat at each time point, and the average used for data analysis. WBD was expressed as “% WL”, i.e. the percentage of weight borne on the burn-injured left hind paw, using the following formula: […]
where WLP is the weight on the left hind paw and WRP is the weight on the right (untreated) hind paw. The 50% value of % WL corresponds to an equal weight distribution across both hind paws. […]

[4] = 30 mg/kg PO, 1 h after administration
[5] = 30 mg/kg PO, 3 h after administration
[6] = 30 mg/kg PO, 5 h after administration
[7] = 30 mg/kg PO, baseline (prior to drug administration)
[8] = 3 mg/kg IP, 1 h after administration
[9] = 3 mg/kg IP, 3 h after administration
[10] = 3 mg/kg IP, 5 h after administration
[11] = 10 mg/kg IP, 1 h after administration
[12] = 10 mg/kg IP, 3 h after administration
[13] = 10 mg/kg IP, 5 h after administration
[14] = 30 mg/kg IP, 1 h after administration
[15] = 30 mg/kg IP, 3 h after administration
[16] = 30 mg/kg IP, 5 h after administration
[17] = 100 mg/kg IP in 0.9% NaCl, 1 h after administration, 100 mg/kg
[18] = 100 mg/kg IP in 0.9% NaCl, 5 h after administration, 100 mg/kg

CC(=O)Nc1nc2c(Oc3cc(-c4ccc(C(F)(F)F)cc4)ncn3)cccc2s1 [AMG 517]
% Decrease from Baseline (mean ± S.E.M.) of Paw Withdrawal Threshold (male Sprague-Dawley rats [1]; [4]): 61 ± 2.3%
Paw Withdrawal Threshold (g) (mean ± S.E.M.) (male Sprague-Dawley rats [1]; [4]): 94 ± 5.3 g
% Decrease from Baseline (mean ± S.E.M.) of Paw Withdrawal Threshold (male Sprague-Dawley rats [1]; [5]): 52 ± 4.3%
Paw Withdrawal Threshold (g) (mean ± S.E.M.) (male Sprague-Dawley rats [1]; [5]): 115 ± 10.8 g
% Decrease from Baseline (mean ± S.E.M.) of Paw Withdrawal Threshold (male Sprague-Dawley rats [1]; [6]): 65 ± 2.9%
Paw Withdrawal Threshold (g) (mean ± S.E.M.) (male Sprague-Dawley rats [1]; [6]): 86 ± 7.7 g
Paw Withdrawal Threshold (g) (mean ± S.E.M.) (male Sprague-Dawley rats [1]; [7]): 242 ± 6.0 g
% Change from Baseline (mean ± S.E.M.) of Paw Withdrawal Latency (male Sprague-Dawley rats [2]; 1 h after administration): −50.1 ± 25.49%
Paw Withdrawal Latency (sec) (mean ± S.E.M.) (male Sprague-Dawley rats [2]; 1 h after administration): 8.6 ± 0.91 s
% Change from Baseline (mean ± S.E.M.) of Paw Withdrawal Latency (male Sprague-Dawley rats [2]; 3 h after administration): −27.1 ± 16.54%
Paw Withdrawal Latency (sec) (mean ± S.E.M.) (male Sprague-Dawley rats [2]; 3 h after administration): 11.8 ± 0.66 s
% Change from Baseline (mean ± S.E.M.) of Paw Withdrawal Latency (male Sprague-Dawley rats [2]; 5 h after administration): −24.8 ± 15.95%
Paw Withdrawal Latency (sec) (mean ± S.E.M.) (male Sprague-Dawley rats [2]; 5 h after administration): 12.1 ± 0.60 s
Paw Withdrawal Latency (sec) (mean ± S.E.M.) (male Sprague-Dawley rats [2]; baseline (prior to drug administration)): 14.4 ± 1.35 s
% WL (mean ± S.E.M.), percentage of weight borne on the burn-injured left hind paw (male Sprague-Dawley rats [3]; [4]): 39.2 ± 4.30 %
% WL (mean ± S.E.M.), percentage of weight borne on the burn-injured left hind paw (male Sprague-Dawley rats [3]; [5]): 43.1 ± 2.82%
% WL (mean ± S.E.M.), percentage of weight borne on the burn-injured left hind paw (male Sprague-Dawley rats [3]; [6]): 43.0 ± 3.37%
% WL (mean ± S.E.M.), percentage of weight borne on the burn-injured left hind paw (male Sprague-Dawley rats [3]; [7]): 49.4 ± 0.44%

NCC1(CC(=O)O)CCCCC1 [Gabapentin, gabapentin]
% Decrease from Baseline (mean ± S.E.M.) of Paw Withdrawal Threshold (male Sprague-Dawley rats [1]; [8]): 61 ± 2.1%
Paw Withdrawal Threshold (g) (mean ± S.E.M.) (male Sprague-Dawley rats [1]; [8]): 90 ± 4.1 g
% Decrease from Baseline (mean ± S.E.M.) of Paw Withdrawal Threshold (male Sprague-Dawley rats [1]; [9]): 55 ± 3.7%
Paw Withdrawal Threshold (g) (mean ± S.E.M.) (male Sprague-Dawley rats [1]; [9]): 102 ± 7.4 g
% Decrease from Baseline (mean ± S.E.M.) of Paw Withdrawal Threshold (male Sprague-Dawley rats [1]; [10]): 65 ± 3.0%
Paw Withdrawal Threshold (g) (mean ± S.E.M.) (male Sprague-Dawley rats [1]; [10]): 81 ± 6.5 g
Paw Withdrawal Threshold (g) (mean ± S.E.M.) (male Sprague-Dawley rats [1]; 3 mg/kg IP, baseline (prior to drug administration)): 232 ± 10.0 g
% Decrease from Baseline (mean ± S.E.M.) of Paw Withdrawal Threshold (male Sprague-Dawley rats [1]; [11]): 47 ± 3.9%
Paw Withdrawal Threshold (g) (mean ± S.E.M.) (male Sprague-Dawley rats [1]; [11]): 122 ± 9.1 g
% Decrease from Baseline (mean ± S.E.M.) of Paw Withdrawal Threshold (male Sprague-Dawley rats [1]; [12]): 43 ± 3.7%
Paw Withdrawal Threshold (g) (mean ± S.E.M.) (male Sprague-Dawley rats [1]; [12]): 130 ± 8.2 g
% Decrease from Baseline (mean ± S.E.M.) of Paw Withdrawal Threshold (male Sprague-Dawley rats [1]; [13]): 57 ± 3.2%
Paw Withdrawal Threshold (g) (mean ± S.E.M.) (male Sprague-Dawley rats [1]; [13]): 100 ± 8.7 g
Paw Withdrawal Threshold (g) (mean ± S.E.M.) (male Sprague-Dawley rats [1]; 10 mg/kg IP, baseline (prior to drug administration)): 231 ± 9.7 g
% Decrease from Baseline (mean ± S.E.M.) of Paw Withdrawal Threshold (male Sprague-Dawley rats [1]; [14]): 40 ± 2.0 %
Paw Withdrawal Threshold (g) (mean ± S.E.M.) (male Sprague-Dawley rats [1]; [14]): 144 ± 7.2 g
% Decrease from Baseline (mean ± S.E.M.) of Paw Withdrawal Threshold (male Sprague-Dawley rats [1]; [15]): 27 ± 5.1 %
Paw Withdrawal Threshold (g) (mean ± S.E.M.) (male Sprague-Dawley rats [1]; [15]): 174 ± 14.8 g
% Decrease from Baseline (mean ± S.E.M.) of Paw Withdrawal Threshold (male Sprague-Dawley rats [1]; [16]): 56 ± 4.0^ %
Paw Withdrawal Threshold (g) (mean ± S.E.M.) (male Sprague-Dawley rats [1]; [16]): 105 ± 11.2 g
Paw Withdrawal Threshold (g) (mean ± S.E.M.) (male Sprague-Dawley rats [1]; 30 mg/kg IP, baseline (prior to drug administration)): 237 ± 7.9 g
% Decrease from Baseline (mean ± S.E.M.) of Paw Withdrawal Threshold (male Sprague-Dawley rats [1]; [17]): 37 ± 5.3 % and 23 ± 6.6 % and 41 ± 3.6 %
Paw Withdrawal Threshold (g) (mean ± S.E.M.) (male Sprague-Dawley rats [1]; [17]): 152 ± 14.1 g and 180 ± 13.7 g and 145 ± 9.8 g
% Decrease from Baseline (mean ± S.E.M.) of Paw Withdrawal Threshold (male Sprague-Dawley rats [1]; [18]): 53 ± 6.0^ % and 55 ± 4.6^ % and 56 ± 2.2^ %
Paw Withdrawal Threshold (g) (mean ± S.E.M.) (male Sprague-Dawley rats [1]; [18]): 112 ± 12.4^ g and 105 ± 9.5 g and 108 ± 5.8^ g
Paw Withdrawal Threshold (g) (mean ± S.E.M.) (male Sprague-Dawley rats [1]; 100 mg/kg IP in 0.9% NaCl, baseline (prior to drug administration), 100 mg/kg): 239 ± 7.7 g and 237 ± 7.8 g and 246 ± 4.5^ g
% WL (mean ± S.E.M.), percentage of weight borne on the burn-injured left hind paw (male Sprague-Dawley rats [3]; 100 mg/kg IP in NaCl, 1 h after administration): 33.6 ± 3.09 %
% WL (mean ± S.E.M.), percentage of weight borne on the burn-injured left hind paw (male Sprague-Dawley rats [3]; 100 mg/kg IP in NaCl, 3 h after administration): 44.8 ± 2.58%
% WL (mean ± S.E.M.), percentage of weight borne on the burn-injured left hind paw (male Sprague-Dawley rats [3]; 100 mg/kg IP in NaCl, 5 h after administration): 44.0 ± 2.24%
% WL (mean ± S.E.M.), percentage of weight borne on the burn-injured left hind paw (male Sprague-Dawley rats [3]; 100 mg/kg IP in NaCl, baseline (prior to drug administration)): 51.1 ± 0.57%

Reference: patent US20180303809A1, “TREATMENT OF BURN PAIN BY TRPV1 MODULATORS” (Purdue Pharma L.P., priority 2013, published 2018)
